Where a name gives a salt, the structure may show the parent alone.

In the experiment the target is Glycogen synthase kinase-3 beta (Homo sapiens, UniProt P49841). Kind of experiment: concentration-response blocking of human GSK3B – biochemical, luminescence, cell-free homogeneous, retest, dose response (AID 434954).
Chain of Glycogen synthase kinase-3 beta (P49841 whole entry): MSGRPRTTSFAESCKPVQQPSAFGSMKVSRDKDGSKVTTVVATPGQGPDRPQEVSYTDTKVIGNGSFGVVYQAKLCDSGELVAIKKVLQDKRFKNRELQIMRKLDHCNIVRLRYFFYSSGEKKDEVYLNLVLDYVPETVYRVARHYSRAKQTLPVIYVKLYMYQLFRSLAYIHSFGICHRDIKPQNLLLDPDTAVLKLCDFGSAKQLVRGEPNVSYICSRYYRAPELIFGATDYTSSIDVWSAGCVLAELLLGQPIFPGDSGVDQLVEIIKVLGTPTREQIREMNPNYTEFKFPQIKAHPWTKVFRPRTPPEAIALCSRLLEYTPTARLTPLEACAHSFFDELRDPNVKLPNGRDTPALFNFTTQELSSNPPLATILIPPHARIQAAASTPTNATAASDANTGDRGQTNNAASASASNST
Take `COCCCNC(=O)c1cccn2c(=O)c3cc4ccccc4cc3nc12` [N-(3-methoxypropyl)-12-oxidanylidene-12H-benzo[g]pyrido[2,1-b]quinazoline-4-carboxamide]: the half-maximal effective concentration (EC50) stood at 0.531 µM. For `CCc1nn(CC(=O)NCCN2CCN(C)CC2)c(=O)c2cc3c(OC)cccc3n12` [MLS001110984] the value was over 300 µM; for `NC(=O)c1ncn([C@@H]2O[C@H](CO)[C@@H](O)[C@H]2O)c1O` [1-[(2R,3R,4S,5R)-5-(hydroxymethyl)-3,4-bis(oxidanyl)oxolan-2-yl]-5-oxidanyl-imidazole-4-carboxamide], over 300 µM. The figure for `COc1cc(CN=O)ccc1OCc1ccccc1Cl` [4-(2-chlorobenzyl)oxy-3-methoxy-benzaldoxime] is over 300 µM. For `N#Cc1c(N2CCCCC2)nc(N2CCCCC2)c2c1CCN(Cc1ccccc1)C2` [SMR000036037] the value was 3.3 µM; for `COc1cccc(CCNC(=O)c2ccc(C#N)cc2)c1` [MLS000696427], over 300 µM; for `O=C(NCC(c1ccco1)N1CCN(c2ccc(F)cc2)CC1)c1ccc2c(c1)OCO2` (configuration not stated) [N-[2-[4-(4-fluorophenyl)-1-piperazinyl]-2-(2-furanyl)ethyl]-1,3-benzodioxole-5-carboxamide], over 300 µM. Turning to `Nc1nc(NCCO)nc(NCc2ccccc2)c1[N+](=O)[O-]` [2-[[4-amino-6-(benzylamino)-5-nitropyrimidin-2-yl]amino]ethanol], a half-maximal response (EC50) required 20.2 µM. The figure for `Fc1ccc(Nc2nc(-c3ccncc3)nc3ccccc23)cc1` [(4-Fluoro-phenyl)-(2-pyridin-4-yl-quinazolin-4-yl)-amine] is over 300 µM; for `CN(C)Cc1c(O)ccc2c(-c3ccccc3)cc(=O)oc12` [SMR000277276] it is over 300 µM.

Regarding `COc1cccc(C(=O)Nc2ccc(C(=O)NCC(C)C)cc2)c1` [SMR000292523], the EC50 was over 300 µM. For `CCc1ccc(C=NNC(=O)c2nnn(-c3nonc3N)c2CN2CCc3ccccc32)cc1` [1-(4-amino-1,2,5-oxadiazol-3-yl)-5-(2,3-dihydroindol-1-ylmethyl)-N-[(4-ethylphenyl)methylideneamino]triazole-4-carboxamide] the value was over 300 µM; for `COC(=O)c1c(C)oc2ccc(OC(=O)c3cccs3)cc12` [methyl 2-methyl-5-thiophen-2-ylcarbonyloxy-1-benzofuran-3-carboxylate], over 300 µM; for `CCN1CCN(c2nc(N)c([N+](=O)[O-])c(Nc3cccc(C)c3)n2)CC1` [2-(4-ethylpiperazin-1-yl)-4-N-(3-methylphenyl)-5-nitropyrimidine-4,6-diamine], over 300 µM. The figure for `COc1ccc(OCCN(C)Cc2ccccc2)cc1` is over 300 µM; for `c1ccc(CN=Nc2nccc(-c3cccnc3)n2)cc1` it is 16.9 µM; for `CSc1nc(SCC(=O)NCC2CCCO2)c2c3c(sc2n1)CN(C)CC3` (configuration not stated) [2-[(7-methyl-2-methylsulfanyl-6,8-dihydro-5H-pyrido[2,3]thieno[2,4-b]pyrimidin-4-yl)sulfanyl]-N-(oxolan-2-ylmethyl)ethanamide] it is 22.8 µM. On to `c1ccc2c(CSc3nnc(-c4ccncc4)o3)cccc2c1` [2-(naphthalen-1-ylmethylsulfanyl)-5-pyridin-4-yl-1,3,4-oxadiazole], for which the EC50 is 29.1 µM. For `Cc1cccc(C(=O)NC2CC3CCCC(C2)N3Cc2ccccc2)c1` (configuration not stated) [MLS001212730] the value was over 300 µM; for `CCCn1nc(NC(=O)c2cccs2)c2cc3cc(OC)ccc3nc21` [N-(6-methoxy-1-propyl-3-pyrazolo[3,4-b]quinolinyl)-2-thiophenecarboxamide], 44.5 µM; for `O=C(COc1ccc2ccccc2c1)Nc1cccc2c1C(=O)NC2=O` [MLS000375387], over 300 µM. The figure for `COc1cccc(C2c3c(n[nH]c3C)N=C3CC(C)(C)CC(=O)C32)c1` (configuration not stated) [SMR000347812] is 0.958 µM; for `CSc1nc2ncc3c(n2n1)CC1c2ccccc2CCN1C3=O` (configuration not stated) [SMR000169664] it is 46.3 µM; for `COc1ccc2c(c1)-c1c(sn(-c3ccccc3)c1=S)C(C)(C)N2` it is over 300 µM.

Molecule `COC(=O)c1nnn(-c2nonc2N)c1CN1CCCC1` [MLS001202105] yielded an EC50 of over 300 µM.

For `O=Cc1cc(CCC(=O)O)ccc1O` [SMR000639316], the concentration for a half-maximal effect (EC50) is over 300 µM. As for `O=C(CSc1ccc(F)cc1)Nc1ccc(N2CCOCC2)cc1` [2-(4-fluorophenyl)sulfanyl-N-(4-morpholin-4-ylphenyl)ethanamide], the 50% effective concentration (EC50) was over 300 µM. The figure for `C=C1CSc2nc(=O)c3c4c(sc3n21)CCCC4` [MLS000108332] is over 300 µM; for `CC1CCCCC1NS(=O)(=O)c1ccc2c(c1)CC(=O)N2C` (configuration not stated) it is over 300 µM. The figure for `O=c1c2c3c(sc2nc2n1N=C(c1cccs1)CS2)CCCC3` [SMR000161302] is over 300 µM; for `O=C(COc1ccccc1[N+](=O)[O-])NN=C/C=C/c1ccco1` [N-[[(E)-3-(furan-2-yl)prop-2-enylidene]amino]-2-(2-nitrophenoxy)acetamide] it is over 300 µM; for `CN1CCc2c(sc3c2c(=O)n(-c2ccc(Cl)cc2)c2nncn32)C1` [SMR000042939] it is over 300 µM. The figure for `CC(=NNC(=O)c1ccc(C(=O)NN=C(C)c2ccco2)o1)c1ccco1` [N'~2~,N'~5~-bis[1-(2-furyl)ethylidene]-2,5-furandicarbohydrazide] is over 300 µM. The molecule `N#Cc1c2n(c3c(S)ncnc13)CCCCC2` [4-sulfanylidene-1,6,7,8,9,10-hexahydropyrimido[3,4]pyrrolo[3,5-a]azepine-11-carbonitrile] registered a concentration for a half-maximal effect (EC50) of 0.304 µM. For `CC1CCCCN1c1ncnc2ccccc12` (configuration not stated) [4-(2-Methyl-piperidin-1-yl)-quinazoline] the value was over 300 µM; for `C=CCN=C(NC#N)SCC(=O)NC(C)(C)C` [MLS000078466], over 300 µM; for `COc1ccc(-c2nn(-c3ccccc3)cc2C=NNC(=O)c2ccc(Br)o2)cc1` [5-bromo-N-[[3-(4-methoxyphenyl)-1-phenyl-4-pyrazolyl]methylideneamino]-2-furancarboxamide], over 300 µM. For `CCc1ccc(Oc2ncnc(N)c2[N+](=O)[O-])cc1` [6-(4-ethylphenoxy)-5-nitro-4-pyrimidinamine] the value was over 300 µM.

`COc1cccc(C(=O)N/N=C/c2ccc(Oc3ccc([N+](=O)[O-])cn3)c(OC)c2)c1` [3-methoxy-N-[[3-methoxy-4-(5-nitropyridin-2-yl)oxyphenyl]methylideneamino]benzamide] displayed an EC50 of over 300 µM. In the case of `Cc1cc(NC(=O)CSc2nc(O)c(C#N)c(-c3ccccc3)n2)no1` [2-[(5-cyano-4-oxidanylidene-6-phenyl-1H-pyrimidin-2-yl)sulfanyl]-N-(5-methyl-1,2-oxazol-3-yl)ethanamide], the EC50 is over 300 µM. For `CC(N=Nc1nccnc1Cl)c1ccc(Br)cc1` (configuration not stated) [N-[1-(4-bromophenyl)ethylideneamino]-3-chloranyl-pyrazin-2-amine] the value was over 300 µM; for `CCOC(=O)c1nnn(-c2nc(OC)nc(N3CCCC3)n2)c1-c1ccccc1`, over 300 µM; for `O=C1NC(c2cccs2)Nc2sc3c(c21)CCCC3` (configuration not stated) [2-thiophen-2-yl-2,3,5,6,7,8-hexahydro-1H-[1]benzothiolo[2,3-d]pyrimidin-4-one], over 300 µM.

In turn, `OCCNc1nc2nonc2nc1NCCO` registered an EC50 of over 300 µM. `Cc1ccc(OCC(=O)NN=Cc2ccccc2)c([N+](=O)[O-])c1` [2-(4-methyl-2-nitro-phenoxy)-N-[(phenylmethylidene)amino]ethanamide] displayed an EC50 of over 300 µM.

`c1cncc(-c2nc(NCc3ccco3)c3ccccc3n2)c1` [N-(2-furanylmethyl)-2-(3-pyridinyl)-4-quinazolinamine] showed a concentration for a half-maximal effect (EC50) of over 300 µM. For `CCCNCC1COc2ccccc2O1` (configuration not stated) [2,3-dihydro-1,4-benzodioxin-3-ylmethyl(propyl)amine;hydrochloride] the value was over 300 µM; for `COc1ccc(-c2csc(N3CCOCC3)n2)cc1OC`, over 300 µM.

For the molecule `Cc1cccc(Nc2nc(N)c([N+](=O)[O-])c(NCc3ccccc3)n2)c1` [MLS000332785], the EC50 came to 21.4 µM. For `CCOC(=O)CNC(=O)CSc1ccc2nnc(-c3ccc(F)cc3)n2n1` [MLS000684782] the value was over 300 µM; for `COCCCn1c(-c2ccc(OC)cc2)nc2nc3ccccc3nc21`, over 300 µM; for `Cc1ccc(OCCN(C)C(=O)C2CCC(=O)N(CCCN3CCOCC3)C2)cc1` (configuration not stated), over 300 µM. The figure for `O=C(CN1CCN(S(=O)(=O)c2ccccc2)CC1)Nc1ccc([N+](=O)[O-])cc1` [2-[4-(benzenesulfonyl)-1-piperazinyl]-N-(4-nitrophenyl)acetamide] is over 300 µM; for `COCCNc1nc(N)c([N+](=O)[O-])c(NCCO)n1` [2-[[6-azanyl-2-(2-methoxyethylamino)-5-nitro-pyrimidin-4-yl]amino]ethanol] it is 28.5 µM. The molecule `Cc1ccc(S(=O)(=O)N2CCN(CC(=O)NN=Cc3ccco3)CC2)cc1` [MLS000590873] displayed an EC50 of over 300 µM. The figure for `CNc1nc(N)c([N+](=O)[O-])c(NCC2CCCO2)n1` (configuration not stated) [SMR000436173] is 49.7 µM; for `CCOC(=O)CCCSc1nnc(CCCCCN2C(=O)c3cccc4cccc(c34)C2=O)o1` [SMR000235858] it is over 300 µM; for `CC(C)Nc1nc(N)c(C(=O)C23CC4CC(CC(C4)C2)C3)s1` [1-adamantyl-[4-azanyl-2-(propan-2-ylamino)-1,3-thiazol-5-yl]methanone] it is 23.5 µM.

As to `CN(C)c1nc(-c2ccccc2)nc(-c2ccc(Cl)cc2)c1C#N` [4-(4-chlorophenyl)-6-(dimethylamino)-2-phenylpyrimidine-5-carbonitrile], the EC50 is over 300 µM. The figure for `CCCC(=O)Nc1nn(CC(C)C)c2nc3cc(C)ccc3cc12` [SMR000540561] is over 300 µM; for `Nc1nc(Nc2ccc(Cl)cc2)nc(NCCO)c1[N+](=O)[O-]` [2-[[6-amino-2-(4-chloroanilino)-5-nitropyrimidin-4-yl]amino]ethanol] it is 1.7 µM; for `CCCN(CCC)Cc1c(C(=O)NN=Cc2ccc(C)o2)nnn1-c1nonc1N` [1-(4-azanyl-1,2,5-oxadiazol-3-yl)-5-[(dipropylamino)methyl]-N-[(5-methylfuran-2-yl)methylideneamino]-1,2,3-triazole-4-carboxamide] it is over 300 µM.

What is called EC50 is the concentration needed to bring the measured effect to its halfway point. Read a low EC50 as greater potency.

The values are drawn from BindingDB's records for doi:10.7270/Q2TX3CTT (Broad Institute, 2010).
